Test results published in article PMC10044245, “Comparative Evaluation of Existing and Rationally Designed Novel Antimicrobial Peptides for Treatment of Skin and Soft Tissue Infections” (Antibiotics, 2023).
≈ marks a conversion by molar mass, not a printed value. Where a SMILES comes first, the peptide text is derived from it.

Legend:
E. coli = assay: microbe, parasite or virus in culture; type: cell-based, Escherichia coli
Method: (§1) Quantification of the antimicrobial resistance against various AMPs was carried out by measuring the bacterial growth in the presence of peptides at serial dilutes in 96 well plates in a microplate (96-well plate) reader Infinite® M200 PRO Multimode Microplate Reader (Tecan, Maennedorf, Switzerland) according to our recent reports. All bacterial strains were incubated at 32 °C for 13–18 h at 200 rpm. Optical density measurements (λ = 550 nm) were taken automatically at 10 min intervals. Antimicrobial resistance activity was quantified as the minimum inhibitory concentration (MIC)—the lowest concentration of a peptide which prevents growth of bacterial cells.

S. aureus = assay: microbe, parasite or virus in culture; type: cell-based, Staphylococcus aureus
Method: as §1

E. faecium = assay: microbe, parasite or virus in culture; type: cell-based, Enterococcus faecium
Method: as §1

K. pneumonia = assay: microbe, parasite or virus in culture; type: cell-based, Klebsiella pneumoniae
Method: as §1

C. acnes = assay: microbe, parasite or virus in culture; type: cell-based, Cutibacterium acnes
Method: as §1

[1] = tested on: BALB/c 3T3 murine fibroblast cell line; assay: Cytotoxicity, neutral red uptake assay; type: cell-based; conditions: for IC50, viability of Balb/c 3T3 cells: 48 h
Excerpt: The BALB/c 3T3 murine fibroblast cell line was obtained from ATCC (American Type Culture Collection, Manassas, VA, USA). Primary human dermal fibroblasts were isolated by enzymatic digestion from skin biopsies in the Laboratory of Bioanalytical and Biodosimetry Methods, University of Latvia, in accordance with the approval of the Committee of Research Ethics of the Institute of Cardiology and Regenerative Medicine, University of Latvia. Cells were propagated in DMEM medium (Sigma, Irvine, UK), supplemented with 1% penicillin (100 U/mL)–streptomycin (100 μg/mL), and 10% calf serum (Sigma, St. Louis, MO, USA) for Balb/c 3T3 cell line and fetal bovine serum (Sigma, St. Louis, MO, USA) for primary dermal fibroblasts. All cultivations were performed in a humidified 5% CO2 atmosphere at 37 °C.
The cytotoxicity of the peptides was tested in the BALB/c3T3 cell line and primary dermal fibroblasts by the neutral red (NR) uptake assay. Cells were seeded in 96-well plates at a density of 5 × 10^3 cells per well. After 24 h of incubation, peptides in a concentration range of 3.9 to 500 μg/mL were added. Dilutions were made in a cell cultivation medium. Cultivation in the presence of extracts was performed for 48 h. Afterwards, plates were washed with phosphate-buffered saline (PBS) (Sigma, Irvine, UK), and a 25 µg/mL NR solution (Sigma, Irvine, UK) diluted in 5%-fetal-calf-serum-containing-media was added. After 3 h, incubation in a humidified 5% CO2 atmosphere at 37 °C, the plate was washed with PBS, and the NR taken up by viable cells was extracted using desorbing fixative (50% ethanol/1% acetic acid/49% water). Absorbance at 540 nm was measured using a microplate reader Tecan Infinite® 200 PRO (Tecan Group Ltd., Mannedorf, Switzerland). Cytotoxicity was expressed as a concentration-dependent reduction in the uptake of NR, compared to the untreated controls and calculated using the following equation: Cell viability (%)=Abs540nm(treatment)−Abs540nm(background)/Abs540nm(untreated control)−Abs540nm(background)×100%

P. aeruginosa = assay: microbe, parasite or virus in culture; type: cell-based, Pseudomonas aeruginosa
Method: as §1

| SMILES | MIC E. coli (E. coli) | Therapeutic Index E. coli (E. coli) | MIC S. aureus (S. aureus) | Therapeutic Index S. aureus (S. aureus) | MIC E. faecium (E. faecium) | Therapeutic Index E. faecium (E. faecium) | MIC K. pneumonia (K. pneumonia) | Therapeutic Index K. pneumonia (K. pneumonia) | MIC C. acnes (C. acnes) | Therapeutic Index C. acnes (C. acnes) | IC50, viability of Balb/c 3T3 cells [1] | reduction of cell viability ([1]; Balb/c 3T3, at 500 μg/mL) | MIC P. aeruginosa (P. aeruginosa) | Therapeutic Index P. aeruginosa (P. aeruginosa) |
| --- | --- | --- | --- | --- | --- | --- | --- | --- | --- | --- | --- | --- | --- | --- |
| CC(C)[C@H](NC(=O)[C@H](Cc1ccc(O)cc1)NC(=O)[C@H](Cc1c[nH]c2ccccc12)NC(=O)[C@H](CS)NC(=O)[C@H](Cc1ccccc1)NC(=O)CN)C(=O)N[C@@H](CS)C(=O)N[C@@H](C)C(=O)N[C@@H](CCCNC(=N)N)C(=O)N[C@@H](CCCNC(=N)N)C(=O)N[C@@H](CC(N)=O)C(=O)NCC(=O)N[C@@H](C)C(=O)N[C@@H](CCCNC(=N)N)C(=O)N[C@H](C(=O)N[C@@H](CS)C(=O)N[C@@H](Cc1ccc(O)cc1)C(=O)N[C@@H](CCCNC(=N)N)C(=O)N[C@@H](CCCNC(=N)N)C(=O)N[C@@H](CS)C(=O)N[C@@H](CC(N)=O)C(=O)O)C(C)C [AA139, reference compound] (H-GFCWYVCARRNGARVCYRRCN-OH; N-terminus and C-terminus assumed) | 4.0 µg/mL (≈ 1.57 µM) | 157.0 | 8.0 µg/mL (≈ 3.13 µM) | 78.5 | 16.0 µg/mL (≈ 6.26 µM) | 39.3 | 8.0 µg/mL (≈ 3.13 µM) | 78.5 | 63.0 µg/mL (≈ 24.7 µM) | 10.0 | 627.5 µg/mL | 36% | 16.0 µg/mL (≈ 6.26 µM) | 39.3 |
| CC[C@H](C)[C@H](NC(=O)[C@H](CCCNC(=N)N)NC(=O)[C@H](CCCCN)NC(=O)[C@H](C)NC(=O)[C@@H](NC(=O)[C@@H](N)CCCCN)[C@@H](C)CC)C(=O)N[C@@H](Cc1c[nH]c2ccccc12)C(=O)N[C@@H](CCCCN)C(=O)N[C@@H](CCCNC(=N)N)C(=O)N[C@H](C(=O)N[C@@H](Cc1c[nH]c2ccccc12)C(=O)N[C@@H](CCCCN)C(=O)N[C@H](C(=O)N[C@@H](CC(C)C)C(=O)N[C@@H](CCCNC(=N)N)C(=O)N[C@@H](CCCNC(=N)N)C(=O)N[C@@H](CCCNC(=N)N)C(=O)O)[C@@H](C)CC)[C@@H](C)CC [PA13, reference compound] (H-KIAKRIWKRIWKILRRR-OH) | 31.0 µg/mL (≈ 13.4 µM) | 8.5 | 2.0 µg/mL (≈ 0.862 µM) | 131.0 | 4.0 µg/mL (≈ 1.72 µM) | 65.5 | 16.0 µg/mL (≈ 6.89 µM) | 16.4 | 16.0 µg/mL (≈ 6.89 µM) | 16.4 | 262 µg/mL |  | 16.0 µg/mL (≈ 6.89 µM) | 16.4 |
